In ChEMBL document CHEMBL5678818, “Discovery of potent SOS1 inhibitors that block RAS activation via disruption of the RAS-SOS1 interaction” (Proc Natl Acad Sci U S A, 2019):
Calls of active or inactive are those of the source. No cut-off for these calls is given here.

Experiments:
[1] = molecular target: T1, Serine/threonine-protein kinase D1 (Homo sapiens) (UniProt Q15139); test: Inhibition of PRKD1 (unknown origin) assessed as residual activity at 100 nM by KINOMEscan analysis relative to control
T1 sequence (whole entry): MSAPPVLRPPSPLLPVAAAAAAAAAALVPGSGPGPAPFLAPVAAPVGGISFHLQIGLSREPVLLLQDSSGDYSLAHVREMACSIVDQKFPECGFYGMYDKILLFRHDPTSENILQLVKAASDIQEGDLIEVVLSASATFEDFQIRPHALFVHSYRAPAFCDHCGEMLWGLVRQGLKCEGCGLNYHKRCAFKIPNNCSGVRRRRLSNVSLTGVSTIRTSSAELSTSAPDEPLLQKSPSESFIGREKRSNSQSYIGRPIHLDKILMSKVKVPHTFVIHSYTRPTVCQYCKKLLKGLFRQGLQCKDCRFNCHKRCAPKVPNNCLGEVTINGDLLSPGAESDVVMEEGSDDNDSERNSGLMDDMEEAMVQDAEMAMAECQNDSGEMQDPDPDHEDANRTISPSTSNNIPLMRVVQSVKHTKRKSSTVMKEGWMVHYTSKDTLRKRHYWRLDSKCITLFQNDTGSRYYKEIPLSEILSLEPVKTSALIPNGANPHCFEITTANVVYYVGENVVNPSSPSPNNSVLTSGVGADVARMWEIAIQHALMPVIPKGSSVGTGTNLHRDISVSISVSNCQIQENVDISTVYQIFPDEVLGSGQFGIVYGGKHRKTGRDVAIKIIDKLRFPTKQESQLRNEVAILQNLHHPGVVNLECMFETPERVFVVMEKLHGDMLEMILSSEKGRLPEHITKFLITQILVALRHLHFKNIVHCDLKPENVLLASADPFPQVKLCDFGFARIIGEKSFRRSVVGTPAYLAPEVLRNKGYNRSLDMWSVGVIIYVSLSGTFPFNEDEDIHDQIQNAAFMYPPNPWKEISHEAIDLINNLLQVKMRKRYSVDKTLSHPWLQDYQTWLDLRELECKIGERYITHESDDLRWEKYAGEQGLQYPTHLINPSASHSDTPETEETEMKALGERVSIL

[2] = molecular target: Serine/threonine-protein kinase MARK1 (Homo sapiens) (UniProt Q9P0L2); test: Inhibition of MARK1 (unknown origin) assessed as residual activity at 100 nM by KINOMEscan analysis relative to control
Serine/threonine-protein kinase MARK1 (Homo sapiens), sequence (Q9P0L2 whole entry, looked up, canonical isoform): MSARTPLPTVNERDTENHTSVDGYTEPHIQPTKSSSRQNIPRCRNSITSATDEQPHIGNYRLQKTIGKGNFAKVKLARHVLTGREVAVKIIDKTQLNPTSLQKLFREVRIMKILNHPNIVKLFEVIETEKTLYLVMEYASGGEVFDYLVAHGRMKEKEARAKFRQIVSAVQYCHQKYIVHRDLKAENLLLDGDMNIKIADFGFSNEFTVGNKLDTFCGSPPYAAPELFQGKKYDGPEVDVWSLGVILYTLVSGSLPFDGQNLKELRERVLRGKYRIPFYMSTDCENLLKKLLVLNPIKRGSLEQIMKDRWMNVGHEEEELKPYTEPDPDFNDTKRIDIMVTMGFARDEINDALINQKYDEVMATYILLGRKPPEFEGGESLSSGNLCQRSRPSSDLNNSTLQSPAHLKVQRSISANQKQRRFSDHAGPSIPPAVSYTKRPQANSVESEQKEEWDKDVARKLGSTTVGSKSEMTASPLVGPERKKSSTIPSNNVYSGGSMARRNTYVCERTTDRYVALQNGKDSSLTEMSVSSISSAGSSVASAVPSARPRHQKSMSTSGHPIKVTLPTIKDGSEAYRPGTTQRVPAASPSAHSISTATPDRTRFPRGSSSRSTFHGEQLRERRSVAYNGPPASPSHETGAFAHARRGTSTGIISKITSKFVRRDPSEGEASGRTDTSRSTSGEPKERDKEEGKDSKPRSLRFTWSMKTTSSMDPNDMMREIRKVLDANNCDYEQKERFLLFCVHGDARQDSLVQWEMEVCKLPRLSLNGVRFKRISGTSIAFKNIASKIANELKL

[3] = molecular target: T2, Phosphatidylinositol 4,5-bisphosphate 3-kinase catalytic subunit delta isoform (Homo sapiens) (UniProt O00329); test: Inhibition of PIK3CD (unknown origin) assessed as residual activity at 100 nM by KINOMEscan analysis relative to control
T2 sequence (whole entry): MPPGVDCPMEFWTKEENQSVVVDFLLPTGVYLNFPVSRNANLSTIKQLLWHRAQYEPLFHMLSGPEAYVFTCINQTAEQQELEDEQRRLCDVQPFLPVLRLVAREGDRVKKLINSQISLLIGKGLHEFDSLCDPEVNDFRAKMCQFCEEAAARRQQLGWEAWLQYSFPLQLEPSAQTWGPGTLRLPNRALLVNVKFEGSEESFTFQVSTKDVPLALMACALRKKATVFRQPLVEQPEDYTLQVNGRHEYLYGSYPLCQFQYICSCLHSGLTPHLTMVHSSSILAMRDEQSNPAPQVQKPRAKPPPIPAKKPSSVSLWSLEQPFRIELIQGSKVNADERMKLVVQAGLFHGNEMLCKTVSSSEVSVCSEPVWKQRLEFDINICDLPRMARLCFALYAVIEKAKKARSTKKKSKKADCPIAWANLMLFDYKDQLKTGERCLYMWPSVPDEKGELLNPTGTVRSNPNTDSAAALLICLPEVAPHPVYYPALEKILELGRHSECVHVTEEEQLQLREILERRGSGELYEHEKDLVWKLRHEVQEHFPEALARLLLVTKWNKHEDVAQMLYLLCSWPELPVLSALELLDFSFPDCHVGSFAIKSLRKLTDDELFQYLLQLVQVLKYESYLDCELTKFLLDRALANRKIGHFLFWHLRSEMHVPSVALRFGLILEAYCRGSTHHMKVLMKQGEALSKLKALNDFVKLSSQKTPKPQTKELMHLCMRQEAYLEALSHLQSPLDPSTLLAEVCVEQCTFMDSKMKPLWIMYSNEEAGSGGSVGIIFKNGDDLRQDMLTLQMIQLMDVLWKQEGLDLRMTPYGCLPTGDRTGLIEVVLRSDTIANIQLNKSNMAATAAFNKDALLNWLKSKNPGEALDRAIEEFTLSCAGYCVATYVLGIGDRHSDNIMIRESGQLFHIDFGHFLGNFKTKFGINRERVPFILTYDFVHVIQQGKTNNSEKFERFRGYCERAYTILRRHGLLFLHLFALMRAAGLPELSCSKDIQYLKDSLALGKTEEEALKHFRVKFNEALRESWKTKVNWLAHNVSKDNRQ

[4] = molecular target: Ribosomal protein S6 kinase alpha-4 (Homo sapiens) (UniProt O75676); test: Inhibition of N-terminal RPS6KA4 […] domain 1 (unknown origin) assessed as residual activity at 100 nM by KINOMEscan analysis relative to control
Ribosomal protein S6 kinase alpha-4 (Homo sapiens), sequence (O75676 whole entry, looked up, the tested form may be a part): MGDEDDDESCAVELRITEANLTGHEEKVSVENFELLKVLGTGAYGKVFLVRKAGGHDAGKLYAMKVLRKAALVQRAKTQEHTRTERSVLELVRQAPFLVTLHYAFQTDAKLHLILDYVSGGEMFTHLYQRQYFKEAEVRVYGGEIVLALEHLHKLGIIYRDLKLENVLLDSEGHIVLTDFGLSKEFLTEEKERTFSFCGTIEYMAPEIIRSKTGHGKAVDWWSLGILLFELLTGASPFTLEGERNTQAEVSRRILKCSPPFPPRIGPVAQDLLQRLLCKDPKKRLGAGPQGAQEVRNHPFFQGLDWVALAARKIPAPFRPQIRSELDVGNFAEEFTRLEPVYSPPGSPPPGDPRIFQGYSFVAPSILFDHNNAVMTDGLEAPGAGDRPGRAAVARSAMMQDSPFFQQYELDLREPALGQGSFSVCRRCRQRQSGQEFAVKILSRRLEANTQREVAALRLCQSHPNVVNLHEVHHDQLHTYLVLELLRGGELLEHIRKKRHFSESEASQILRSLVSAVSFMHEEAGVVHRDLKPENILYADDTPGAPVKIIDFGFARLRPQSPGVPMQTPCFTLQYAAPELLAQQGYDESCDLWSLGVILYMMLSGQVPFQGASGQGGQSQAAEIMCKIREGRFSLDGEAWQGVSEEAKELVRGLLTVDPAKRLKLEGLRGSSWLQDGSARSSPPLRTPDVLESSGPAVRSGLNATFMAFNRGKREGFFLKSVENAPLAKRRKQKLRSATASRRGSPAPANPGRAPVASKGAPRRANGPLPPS

[5] = test system: SOS1-KRAS (Homo sapiens), Q07889+P01116 [G12C]; test: Inhibition of N-terminal GST-tagged recombinant human KRAS G12C mutant (1 to 169 residues) expressed in Escherichia coli/N-terminal His10-tagged wild-type recombinant human SOS1 catalytic domain (564 to 1049 residues) expressed in Escherichia coli protein-protein interaction assessed as reduction in FRET signal by HTRF analysis

**Q.** `COc1cc2ncnc(N[C@H](C)c3cccc4ccccc34)c2cc1OC` was tested. Which Activity [1] did it give?
**A.** 84%

**Q.** And the Activity [2]?
**A.** 100%

**Q.** And the Activity [3]?
**A.** 87%

**Q.** What about the Activity [4] of the same compound?
**A.** 100%

**Q.** And the Activity [5]?
**A.** Active
